According to the supplement of paper PMC10307832:

How the values were obtained:
Assay in all cases: relative viability (nuclei count vs DMSO), 5 days (fraction); higher = more cells survive
[1] = compound: CC1(C)CNc2cc(NC(=O)c3cccnc3NCc3ccncc3)ccc21 [Motesanib] + CC1(C)CCC(c2ccc(Cl)cc2)=C(CN2CCN(c3ccc(C(=O)NS(=O)(=O)c4ccc(N[C@H](CCN5CCOCC5)CSc5ccccc5)c(S(=O)(=O)C(F)(F)F)c4)cc3)CC2)C1 [Navitoclax] (partner 0.5 µM)
Method in brief: (§1)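 Lung cancer cell lines were pin-tool dosed in 1536-well plates on the day after seeding, with either a lone drug or a fixed anchor-drug dose plus five library-drug doses (not always all listed) in √10 steps. Nuclei were counted on 4× images after 5 days. Relative viability is the ratio of treated-well to vehicle-well nuclei counts, with each value a median of duplicate plates.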

[2] = compound: CC1(C)CNc2cc(NC(=O)c3cccnc3NCc3ccncc3)ccc21 [Motesanib] + CS(=O)(=O)CCNCc1ccc(-c2ccc3ncnc(Nc4ccc(OCc5cccc(F)c5)c(Cl)c4)c3c2)o1 [Lapatinib] (partner 2 µM)
Method in brief: as §1

[3] = compound: C[C@@]1(C(=O)Nc2ccc(F)nc2)CCCN1c1nc(Nc2cc(C3CC3)n[nH]2)c2cccn2n1 + CCNC(=O)c1noc(-c2cc(C(C)C)c(O)cc2O)c1-c1ccc(CN2CCOCC2)cc1 [Luminespib] (partner 0.01 µM)
Method in brief: as §1

[4] = compound: C[C@@]1(C(=O)Nc2ccc(F)nc2)CCCN1c1nc(Nc2cc(C3CC3)n[nH]2)c2cccn2n1 + Cc1nc(Nc2ncc(C(=O)Nc3c(C)cccc3Cl)s2)cc(N2CCN(CCO)CC2)n1 [Dasatinib] (partner 0.075 µM)
Method in brief: as §1

Cell Line | relative viability ([1]; first compound 0.01 µM) | relative viability ([1]; first compound 0.03162 µM) | relative viability ([1]; first compound 0.1 µM) | relative viability ([1]; first compound 0.3162 µM) | relative viability ([1]; first compound 1 µM) | relative viability ([2]; first compound 0.01 µM) | relative viability ([2]; first compound 0.03162 µM) | relative viability ([2]; first compound 0.1 µM) | relative viability ([2]; first compound 0.3162 µM) | relative viability ([2]; first compound 1 µM) | relative viability ([3]; first compound 0.04 µM) | relative viability ([3]; first compound 0.1265 µM) | relative viability ([3]; first compound 0.4 µM) | relative viability ([3]; first compound 1.265 µM) | relative viability ([4]; first compound 0.04 µM) | relative viability ([4]; first compound 0.1265 µM) | relative viability ([4]; first compound 0.4 µM) | relative viability ([4]; first compound 1.265 µM)
NCI-H1915 | 0.782 | 0.747 | 0.824 | 0.794 | 0.784 | 0.99 | 0.929 | 0.866 | 0.939 | 1.01 | 0.816 | 0.736 | 0.781 | 0.862 | 0.302 | 0.3 | 0.288 | 0.268
NCI-H1793 | 0.594 | 0.445 | 0.41 | 0.583 | 0.33 | 0.858 | 0.636 | 0.64 | 0.701 | 0.773 | 0.581 | 0.18 | – | 0.604 | 0.448 | 0.36 | – | 0.335
NCI-H2023 | 0.949 | 0.916 | 1.02 | 1.02 | 0.98 | 0.939 | 0.778 | 0.54 | 0.988 | 0.897 | 0.58 | 0.336 | 0.37 | 0.192 | 0.407 | 0.165 | 0.154 | 0.105
COR-L 105 | 1.01 | 0.805 | 0.853 | 0.818 | 0.851 | 0.368 | 0.408 | 0.327 | 0.355 | 0.347 | 0.672 | 0.62 | 0.624 | 0.685 | 0.3 | 0.208 | 0.185 | 0.18
RERF-LC-KJ | 0.705 | 1.01 | 1.29 | 0.811 | 0.877 | 0.895 | 0.876 | 0.958 | 0.827 | 0.853 | 1.15 | 0.964 | 1.09 | 0.717 | 0.577 | 0.436 | 0.42 | 0.385
LXF-289 | 0.923 | 0.957 | 0.931 | 0.955 | 0.951 | 0.893 | 0.867 | 0.909 | 1 | 0.949 | 0.64 | 0.563 | 0.511 | 0.611 | 0.13 | 0.119 | 0.0865 | 0.0646
PC-14 | 1.03 | 1.06 | 1 | 1.06 | 1.05 | 0.318 | 0.264 | 0.336 | 0.334 | 0.339 | 0.164 | – | 0.12 | 0.175 | 0.281 | 0.0303 | 0.0906 | 0.0823
NCI-H1666 | 0.947 | 0.979 | 0.99 | 1.05 | 0.88 | 0.882 | 0.709 | 0.691 | 0.69 | 0.667 | 0.915 | 0.932 | 0.825 | 0.812 | 0.709 | 0.613 | 0.486 | 0.412
NCI-H2085 | 1.2 | 1.29 | 1.21 | 1.13 | 1.12 | 0.77 | 0.779 | 0.798 | 0.772 | 0.779 | 0.431 | 0.405 | 0.365 | 0.54 | 0.289 | 0.309 | 0.187 | 0.178
